Values of other authors as cited in patent US7593820B2, “Crystal structure of human Janus Kinase 2 (JAK2) and uses thereof” (Cytopia Research Pty Ltd, priority 2005, dated 2009).

Tested on: other PTKs that possess either a Thr or Val
Details: Thr or Val at gatekeeper position

CC(C)(C)c1nc2c3cc[nH]c(=O)c3c3cc(F)ccc3c2[nH]1 [Compound 6, 2-tert-Butyl-9-fluoro-3,6-dihydro-7H-benz[h]imidazo[4,5-f]isoquinolin-7-one]
IC50 for other PTKs that possess either a Thr or Val: uM range
